According to patent US9840513B2 (AbbVie S.à.r.l., priority 2015, dated 2017):

Target: T1, F508delCFTR cell surface expression in CFBE41o-F508delCFTR-HRP cells (Homo sapiens, UniProt P13569, DEL508-508)
T1 construct: fused on or other part: Horseradish peroxidase (HRP) reporter inserted in the fourth exofacial (extracellular) loop of CFTR; expression is doxycycline-inducible
Test: Cell Surface Expression-Horse Radish Peroxidase (CSE-HRP) Assay
Type: cell-based
Conditions: for EC50: CFBE41o-F508delCFTR-HRP cells, 18-24 hours at 33° C., 8-point curve, highest concentration 20 μM; for Maximum % activity (%): maximum at any tested concentration, normalized to on-plate positive control (3 μM)
How it was run: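 CFBE41o- cells with HRP-tagged F508delCFTR, expression induced by 0.5 μg/mL doxycycline for 72 h at 37 °C, then compound for 18-24 h at 33 °C (8-point, 3-fold, top 20 μM). Surface HRP measured by luminol luminescence; % activity normalised to 3 μM positive-control corrector; EC50 from variable-slope sigmoidal fit, three replicate plates.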

T1 sequence (P13569 with tags, fused parts or gaps DEL508-508 limits assumed): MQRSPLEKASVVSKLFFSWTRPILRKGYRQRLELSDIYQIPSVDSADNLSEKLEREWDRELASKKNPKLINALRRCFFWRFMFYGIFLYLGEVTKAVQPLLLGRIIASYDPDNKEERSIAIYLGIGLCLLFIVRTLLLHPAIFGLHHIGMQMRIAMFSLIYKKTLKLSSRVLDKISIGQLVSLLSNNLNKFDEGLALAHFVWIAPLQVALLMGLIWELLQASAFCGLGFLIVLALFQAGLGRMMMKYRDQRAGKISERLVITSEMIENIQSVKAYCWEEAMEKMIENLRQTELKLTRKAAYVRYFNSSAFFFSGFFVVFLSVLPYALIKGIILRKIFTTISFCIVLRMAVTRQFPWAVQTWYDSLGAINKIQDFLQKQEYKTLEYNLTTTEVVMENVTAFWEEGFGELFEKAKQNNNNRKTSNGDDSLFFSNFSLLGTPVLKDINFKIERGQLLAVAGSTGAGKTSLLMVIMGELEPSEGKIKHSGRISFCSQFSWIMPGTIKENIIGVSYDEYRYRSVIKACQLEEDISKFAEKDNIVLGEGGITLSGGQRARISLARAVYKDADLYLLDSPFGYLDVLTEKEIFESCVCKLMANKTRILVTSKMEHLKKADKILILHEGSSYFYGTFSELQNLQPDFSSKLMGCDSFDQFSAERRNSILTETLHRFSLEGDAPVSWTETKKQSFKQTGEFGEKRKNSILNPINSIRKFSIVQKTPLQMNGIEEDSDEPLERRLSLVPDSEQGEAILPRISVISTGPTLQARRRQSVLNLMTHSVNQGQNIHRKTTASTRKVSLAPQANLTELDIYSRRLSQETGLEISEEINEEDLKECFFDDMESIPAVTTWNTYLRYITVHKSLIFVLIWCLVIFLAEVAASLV
T1 sequence (P13569 919-1480 limits assumed, stated change not applied): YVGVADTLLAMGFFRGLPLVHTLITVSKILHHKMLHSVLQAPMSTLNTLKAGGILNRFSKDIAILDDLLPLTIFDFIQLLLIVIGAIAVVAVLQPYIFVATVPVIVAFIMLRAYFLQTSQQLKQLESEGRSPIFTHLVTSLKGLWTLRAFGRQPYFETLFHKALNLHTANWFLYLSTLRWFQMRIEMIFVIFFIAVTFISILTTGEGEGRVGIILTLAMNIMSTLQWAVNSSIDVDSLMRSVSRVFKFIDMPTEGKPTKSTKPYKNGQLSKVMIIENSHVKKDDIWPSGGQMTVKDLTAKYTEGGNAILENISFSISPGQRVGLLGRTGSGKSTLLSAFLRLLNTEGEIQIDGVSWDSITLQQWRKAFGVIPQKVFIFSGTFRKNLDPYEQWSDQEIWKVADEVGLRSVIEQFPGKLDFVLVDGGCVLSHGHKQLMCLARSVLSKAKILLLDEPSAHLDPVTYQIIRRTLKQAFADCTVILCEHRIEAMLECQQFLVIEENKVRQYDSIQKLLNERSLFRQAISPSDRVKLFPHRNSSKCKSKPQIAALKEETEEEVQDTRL

Molecule | EC50 [nM] | Maximum % activity (%)
C[C@]1(C(=O)N[C@@H]2C[C@H](C3CCC(CO)(C(=O)O)CC3)Oc3cc(OC(F)(F)F)ccc32)COc2cc3c(cc21)OC(F)(F)O3 (stereo partly drawn) [Example 288, 4-[(2R,4R)-4-{[(7R)-2,2-difluoro-7-methyl-6,7-dihydro-2H-furo[2,3-f][1,3]benzodioxole-7-carbonyl]amino}-7-(trifluoromethoxy)-3,4-dihydro-2H-1-benzopyran-2-yl]-1-(hydroxymethyl)cyclohexane-1-carboxylic acid] | 290 | 138
C[C@]1(C(=O)N[C@@H]2C[C@H](C3CCC(CN)(C(=O)O)CC3)Oc3cc(OC(F)(F)F)ccc32)COc2cc3c(cc21)OC(F)(F)O3 (stereo partly drawn) [Example 289, 1-(aminomethyl)-4-[(2R,4R)-4-{[(7R)-2,2-difluoro-7-methyl-6,7-dihydro-2H-furo[2,3-f][1,3]benzodioxole-7-carbonyl]amino}-7-(trifluoromethoxy)-3,4-dihydro-2H-1-benzopyran-2-yl]cyclohexane-1-carboxylic acid] | 640 | 140
COc1cc2c(cc1Br)[C@H](NC(=O)[C@@]1(C)COc3cc4c(cc31)OC(F)(F)O4)C[C@H]([C@H]1CC[C@H](C(=O)O)CC1)O2 [Example 290, trans-4-[(2R,4R)-6-bromo-4-{[(7R)-2,2-difluoro-7-methyl-6,7-dihydro-2H-furo[2,3-f][1,3]benzodioxole-7-carbonyl]amino}-7-methoxy-3,4-dihydro-2H-1-benzopyran-2-yl]cyclohexane-1-carboxylic acid] | 530 | 189
COc1ccc2c(c1)O[C@@H]([C@H]1CC[C@H](C(=O)O)CC1)C[C@H]2NC(=O)[C@@]1(C)COc2c1cc1c(c2I)OC(F)(F)O1 [Example 291, trans-4-[(2R,4R)-4-{[(7R)-2,2-difluoro-4-iodo-7-methyl-6,7-dihydro-2H-furo[2,3-f][1,3]benzodioxole-7-carbonyl]amino}-7-methoxy-3,4-dihydro-2H-1-benzopyran-2-yl]cyclohexane-1-carboxylic acid] | 670 | 117
COc1ccc2c(c1)O[C@@H](C1CCC(C(=O)O)CC1)C[C@H]2NC(=O)[C@]1(C)COc2cc3c(cc21)OC(F)(F)O3 (stereo partly drawn) [Example 292, 4-[(2R,4R)-4-{[(7S)-2,2-difluoro-7-methyl-6,7-dihydro-2H-furo[2,3-f][1,3]benzodioxole-7-carbonyl]amino}-7-methoxy-3,4-dihydro-2H-1-benzopyran-2-yl]cyclohexane-1-carboxylic acid] | 7540 | 99
COc1ccc2c(c1)O[C@H](C1CCC(C(=O)O)CC1)C[C@@H]2NC(=O)[C@]1(C)COc2cc3c(cc21)OC(F)(F)O3 (stereo partly drawn) [Example 293, 4-[(2S,4S)-4-{[(7S)-2,2-difluoro-7-methyl-6,7-dihydro-2H-furo[2,3-f][1,3]benzodioxole-7-carbonyl]amino}-7-methoxy-3,4-dihydro-2H-1-benzopyran-2-yl]cyclohexane-1-carboxylic acid] | 1630 | 115
(7R)—N-(6-{[2R)-2,3-dihydroxypropyl]amino}pyridin-2-yl)-2,2-difluoro-7-methyl-6,7-dihydro-2H-furo[2,3-f][1,3]benzodioxole-7-carboxamide [Example 92] | 1720 | 98
(7R)—N-[5-(3R,4R)-dihydroxypyrrolidin-1-yl)pyrazin-2-yl]-2,2-difluoro-7-methyl-6,7-dihydro-2H-furo[2,3-f][1,3]benzodioxole-7-carboxamide and (7R)—N-[5-(3S,4S)-dihydroxypyrrolidin-1-yl)pyrazin-2-yl]-2,2-difluoro-7-methyl-6,7-dihydro-2H-furo[2,3-f][1,3]benzodioxole-7-carboxamide [Example 121] | 11100 | 23
(7R)—N-[6-(3-benzylpyrrolidin-1-yl)pyridin-2-yl]-2,2-difluoro-7-methyl-6,7-dihydro-2H-furo[2,3-f][1,3]benzodioxole-7-carboxamide [Example 113] | 1110 | 83
